ChEMBL document CHEMBL1268814, “Synthesis and biological evaluation of bivalent ligands for the cannabinoid 1 receptor” (J Med Chem, 2010)
Activity calls are given as the source filed them. No cut-off for these calls is given here.

Target: T1, Cannabinoid receptor 1 (Homo sapiens, UniProt P21554)
Assay: not given
Settings: CHO

T1 sequence (P21554 whole entry): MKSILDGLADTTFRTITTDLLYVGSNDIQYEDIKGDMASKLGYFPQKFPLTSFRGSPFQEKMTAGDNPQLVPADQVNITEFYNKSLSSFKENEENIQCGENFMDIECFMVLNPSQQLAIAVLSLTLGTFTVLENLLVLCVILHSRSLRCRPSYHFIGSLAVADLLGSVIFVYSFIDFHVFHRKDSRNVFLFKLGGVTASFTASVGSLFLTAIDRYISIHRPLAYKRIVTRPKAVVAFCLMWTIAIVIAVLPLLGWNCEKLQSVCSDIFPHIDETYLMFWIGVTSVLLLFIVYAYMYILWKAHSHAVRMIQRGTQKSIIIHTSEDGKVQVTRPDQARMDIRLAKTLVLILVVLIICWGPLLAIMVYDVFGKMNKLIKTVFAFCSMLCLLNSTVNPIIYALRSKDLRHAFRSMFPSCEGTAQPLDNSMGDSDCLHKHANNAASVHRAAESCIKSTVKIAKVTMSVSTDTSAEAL

Going from `Cc1c(C(=O)NCCCCCN(C)CCCCCN)nn(-c2ccc(Cl)cc2Cl)c1-c1ccc(Cl)cc1` to `Cc1c(C(=O)NCCCCCCCN(C)CCCCCCCNC(=O)c2nn(-c3ccc(Cl)cc3Cl)c(-c3ccc(Cl)cc3)c2C)nn(-c2ccc(Cl)cc2Cl)c1-c1ccc(Cl)cc1`, the Ke falls from 2870 nM to 478 nM (6-fold).

Going from `Cc1c(C(=O)NCCCCCCCNCCCCCCCNC(=O)c2nn(-c3ccc(Cl)cc3Cl)c(-c3ccc(Cl)cc3)c2C)nn(-c2ccc(Cl)cc2Cl)c1-c1ccc(Cl)cc1` to `Cc1c(C(=O)NCCCNCCCNC(=O)c2nn(-c3ccc(Cl)cc3Cl)c(-c3ccc(Cl)cc3)c2C)nn(-c2ccc(Cl)cc2Cl)c1-c1ccc(Cl)cc1`, the Ke rises from 567 nM to 1300 nM (2.3-fold).

`Cc1c(C(=O)NCCNCCN)nn(-c2ccc(Cl)cc2Cl)c1-c1ccc(Cl)cc1` was tested, and the Ke was “inactive”.

Target: T1, Cannabinoid receptor 1
Assay: Antagonist activity at human brain CB1 receptor assessed as inhibition for [35S]GTPgammaS binding
Type: functional
Settings: not given

Compared with `Cc1c(C(=O)NCCCCCCCNCCCCCCCNC(=O)c2nn(-c3ccc(Cl)cc3Cl)c(-c3ccc(Cl)cc3)c2C)nn(-c2ccc(Cl)cc2Cl)c1-c1ccc(Cl)cc1`, `Cc1c(C(=O)NCCCCCCCN(C)CCCCCCCNC(=O)c2nn(-c3ccc(Cl)cc3Cl)c(-c3ccc(Cl)cc3)c2C)nn(-c2ccc(Cl)cc2Cl)c1-c1ccc(Cl)cc1` is 13-fold higher in EC50: 179 nM for the first, 2240 nM for the second. The first is the more potent here.

With `Cc1c(C(=O)NCCCNCCCNC(=O)c2nn(-c3ccc(Cl)cc3Cl)c(-c3ccc(Cl)cc3)c2C)nn(-c2ccc(Cl)cc2Cl)c1-c1ccc(Cl)cc1` the EC50 was 84.2 nM.

Target: T1, Cannabinoid receptor 1
Assay: biochemical
Type: cell-based, HEK293
Settings: not given

First: Cc1c(C(=O)NCCCCCN(C)CCCCCN)nn(-c2ccc(Cl)cc2Cl)c1-c1ccc(Cl)cc1
Second: Cc1c(C(=O)NCCNCCN)nn(-c2ccc(Cl)cc2Cl)c1-c1ccc(Cl)cc1
The Ki of the first is 5.7-fold lower: 88.8 nM for the first, 506 nM for the second.

Going from `Cc1c(C(=O)NCCCCCCCNCCCCCCCNC(=O)c2nn(-c3ccc(Cl)cc3Cl)c(-c3ccc(Cl)cc3)c2C)nn(-c2ccc(Cl)cc2Cl)c1-c1ccc(Cl)cc1` to `Cc1c(C(=O)NCCCCCCCN(C)CCCCCCCNC(=O)c2nn(-c3ccc(Cl)cc3Cl)c(-c3ccc(Cl)cc3)c2C)nn(-c2ccc(Cl)cc2Cl)c1-c1ccc(Cl)cc1`, the Ki rises from 4.41 nM to 27.5 nM (6.2-fold). The first binds more tightly here.

With `Cc1c(C(=O)NCCCNCCCNC(=O)c2nn(-c3ccc(Cl)cc3Cl)c(-c3ccc(Cl)cc3)c2C)nn(-c2ccc(Cl)cc2Cl)c1-c1ccc(Cl)cc1` the Ki was 41.9 nM.

Target: Cannabinoid receptor 1 (Rattus norvegicus) (UniProt P20272)
Assay: Antagonist activity at rat brain CB1 receptor assessed as inhibition of [35S]GTPgammaS binding at 10000 nM
Type: functional
Settings: not given

Chain of Cannabinoid receptor 1 (Rattus norvegicus) (P20272 whole entry): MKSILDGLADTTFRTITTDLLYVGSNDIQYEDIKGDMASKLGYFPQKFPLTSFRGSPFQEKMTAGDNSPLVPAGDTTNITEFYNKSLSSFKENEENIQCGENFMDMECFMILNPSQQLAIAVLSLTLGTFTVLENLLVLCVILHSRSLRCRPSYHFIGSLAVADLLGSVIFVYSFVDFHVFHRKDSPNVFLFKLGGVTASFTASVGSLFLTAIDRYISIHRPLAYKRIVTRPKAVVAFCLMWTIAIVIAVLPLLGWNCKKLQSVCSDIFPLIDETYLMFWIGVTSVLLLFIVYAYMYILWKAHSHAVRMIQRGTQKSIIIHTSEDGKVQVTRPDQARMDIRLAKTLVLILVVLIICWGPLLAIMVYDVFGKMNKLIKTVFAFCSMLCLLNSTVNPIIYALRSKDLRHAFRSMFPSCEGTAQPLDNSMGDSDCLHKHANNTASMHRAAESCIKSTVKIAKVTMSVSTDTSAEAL

First: Cc1c(C(=O)NCCCCCN(C)CCCCCN)nn(-c2ccc(Cl)cc2Cl)c1-c1ccc(Cl)cc1
Second: Cc1c(C(=O)NCCNCCN)nn(-c2ccc(Cl)cc2Cl)c1-c1ccc(Cl)cc1
The Emax of the first is lower: -53.3% for the first, -22.9% for the second.

Going from `Cc1c(C(=O)NCCCCCCCNCCCCCCCNC(=O)c2nn(-c3ccc(Cl)cc3Cl)c(-c3ccc(Cl)cc3)c2C)nn(-c2ccc(Cl)cc2Cl)c1-c1ccc(Cl)cc1` to `Cc1c(C(=O)NCCCCCCCN(C)CCCCCCCNC(=O)c2nn(-c3ccc(Cl)cc3Cl)c(-c3ccc(Cl)cc3)c2C)nn(-c2ccc(Cl)cc2Cl)c1-c1ccc(Cl)cc1`, the Emax falls from -25% to -40.8%.

Work on `Cc1c(C(=O)NCCCNCCCNC(=O)c2nn(-c3ccc(Cl)cc3Cl)c(-c3ccc(Cl)cc3)c2C)nn(-c2ccc(Cl)cc2Cl)c1-c1ccc(Cl)cc1` yielded an Emax of -37.2%.

Target: T1, Cannabinoid receptor 1
Assay: Antagonist activity at human brain CB1 receptor assessed as inhibition for [35S]GTPgammaS binding at 10000 nM
Type: functional
Settings: not given

Compared with `Cc1c(C(=O)NCCCCCCCNCCCCCCCNC(=O)c2nn(-c3ccc(Cl)cc3Cl)c(-c3ccc(Cl)cc3)c2C)nn(-c2ccc(Cl)cc2Cl)c1-c1ccc(Cl)cc1`, `Cc1c(C(=O)NCCCCCCCN(C)CCCCCCCNC(=O)c2nn(-c3ccc(Cl)cc3Cl)c(-c3ccc(Cl)cc3)c2C)nn(-c2ccc(Cl)cc2Cl)c1-c1ccc(Cl)cc1` is higher in Emax: -38.8% for the first, -32.7% for the second.

Work on `Cc1c(C(=O)NCCCNCCCNC(=O)c2nn(-c3ccc(Cl)cc3Cl)c(-c3ccc(Cl)cc3)c2C)nn(-c2ccc(Cl)cc2Cl)c1-c1ccc(Cl)cc1` yielded an Emax of -31.9%.

Tested on: Mus musculus
Assay: Inhibition of compound 21-induced antinociception in mouse at 10 mg/kg, ip administered 30 mins before compound-21 dosing by tail flick latency test
Settings: not given

In the case of `Cc1c(C(=O)NCCCCCCCNCCCCCCCNC(=O)c2nn(-c3ccc(Cl)cc3Cl)c(-c3ccc(Cl)cc3)c2C)nn(-c2ccc(Cl)cc2Cl)c1-c1ccc(Cl)cc1`, the inhibition is reported as “inactive”.
For `Cc1c(C(=O)NCCCCCCCN(C)CCCCCCCNC(=O)c2nn(-c3ccc(Cl)cc3Cl)c(-c3ccc(Cl)cc3)c2C)nn(-c2ccc(Cl)cc2Cl)c1-c1ccc(Cl)cc1`, the inhibition was “Active”.

Target: Cannabinoid receptor 1 (Rattus norvegicus, UniProt P20272)
Assay: Antagonist activity at rat brain CB1 receptor assessed as inhibition of [35S]GTPgammaS binding
Type: functional
Settings: not given

Chain of Cannabinoid receptor 1 (Rattus norvegicus, UniProt P20272) (P20272 whole entry): as above

First: Cc1c(C(=O)NCCCCCN(C)CCCCCN)nn(-c2ccc(Cl)cc2Cl)c1-c1ccc(Cl)cc1
Second: Cc1c(C(=O)NCCNCCN)nn(-c2ccc(Cl)cc2Cl)c1-c1ccc(Cl)cc1
The EC50 of the first is 2.4-fold lower: 3040 nM for the first, 7240 nM for the second. The first is the more potent here.

`Cc1c(C(=O)NCCCCCCCNCCCCCCCNC(=O)c2nn(-c3ccc(Cl)cc3Cl)c(-c3ccc(Cl)cc3)c2C)nn(-c2ccc(Cl)cc2Cl)c1-c1ccc(Cl)cc1` and `Cc1c(C(=O)NCCCCCCCN(C)CCCCCCCNC(=O)c2nn(-c3ccc(Cl)cc3Cl)c(-c3ccc(Cl)cc3)c2C)nn(-c2ccc(Cl)cc2Cl)c1-c1ccc(Cl)cc1` are within 1.5-fold of each other in EC50: 1190 nM for the first, 1460 nM for the second.

`Cc1c(C(=O)NCCCNCCCNC(=O)c2nn(-c3ccc(Cl)cc3Cl)c(-c3ccc(Cl)cc3)c2C)nn(-c2ccc(Cl)cc2Cl)c1-c1ccc(Cl)cc1` gave an EC50 of 718 nM.

Target: Cannabinoid receptor 2 (Homo sapiens, UniProt P34972)
Assay: Displacement of [3H]CP55940 from human CB2 receptor expressed in CHOK1 cells
Type: cell-based, CHO-K1
Settings: not given

Chain of Cannabinoid receptor 2 (P34972 whole entry): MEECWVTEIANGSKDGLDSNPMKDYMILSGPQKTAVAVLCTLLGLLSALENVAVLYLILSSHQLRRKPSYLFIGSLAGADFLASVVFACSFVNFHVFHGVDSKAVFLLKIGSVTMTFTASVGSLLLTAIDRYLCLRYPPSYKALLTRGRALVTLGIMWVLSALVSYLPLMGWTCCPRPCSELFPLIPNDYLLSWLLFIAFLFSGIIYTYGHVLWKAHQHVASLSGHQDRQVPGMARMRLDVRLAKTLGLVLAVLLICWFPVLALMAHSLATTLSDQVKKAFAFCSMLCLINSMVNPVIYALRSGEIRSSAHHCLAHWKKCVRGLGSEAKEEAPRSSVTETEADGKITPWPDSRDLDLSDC

Compared with `Cc1c(C(=O)NCCNCCN)nn(-c2ccc(Cl)cc2Cl)c1-c1ccc(Cl)cc1`, `Cc1c(C(=O)NCCCNCCCNC(=O)c2nn(-c3ccc(Cl)cc3Cl)c(-c3ccc(Cl)cc3)c2C)nn(-c2ccc(Cl)cc2Cl)c1-c1ccc(Cl)cc1` is lower in Ki: greater than 2500 nM for the first, 496 nM for the second. The second binds more tightly here.

With `Cc1c(C(=O)NCCCCCCCNCCCCCCCNC(=O)c2nn(-c3ccc(Cl)cc3Cl)c(-c3ccc(Cl)cc3)c2C)nn(-c2ccc(Cl)cc2Cl)c1-c1ccc(Cl)cc1` the Ki was 553 nM.

Target: T1, Cannabinoid receptor 1
Assay: Displacement of [3H]CP55940 from human CB1 receptor expressed in HEK293 cells
Type: cell-based
Settings: not given

First: Cc1c(C(=O)NCCCCCN(C)CCCCCN)nn(-c2ccc(Cl)cc2Cl)c1-c1ccc(Cl)cc1
Second: Cc1c(C(=O)NCCNCCN)nn(-c2ccc(Cl)cc2Cl)c1-c1ccc(Cl)cc1
The Ki of the first is 7.6-fold lower: 162 nM for the first, 1230 nM for the second. The first binds more tightly here.

`Cc1c(C(=O)NCCCCCCCNCCCCCCCNC(=O)c2nn(-c3ccc(Cl)cc3Cl)c(-c3ccc(Cl)cc3)c2C)nn(-c2ccc(Cl)cc2Cl)c1-c1ccc(Cl)cc1` and `Cc1c(C(=O)NCCCCCCCN(C)CCCCCCCNC(=O)c2nn(-c3ccc(Cl)cc3Cl)c(-c3ccc(Cl)cc3)c2C)nn(-c2ccc(Cl)cc2Cl)c1-c1ccc(Cl)cc1` are within 1.5-fold of each other in Ki: 12.3 nM for the first, 17.3 nM for the second.

`Cc1c(C(=O)NCCCNCCCNC(=O)c2nn(-c3ccc(Cl)cc3Cl)c(-c3ccc(Cl)cc3)c2C)nn(-c2ccc(Cl)cc2Cl)c1-c1ccc(Cl)cc1` showed a Ki of 174 nM.

Target: T1, Cannabinoid receptor 1
Assay: Antagonist activity at human brain CB1 receptor by calcium mobilization assay
Type: functional
Settings: read-out: pA2 (converted)

Compared with `Cc1c(C(=O)NCCCCCN(C)CCCCCN)nn(-c2ccc(Cl)cc2Cl)c1-c1ccc(Cl)cc1`, `Cc1c(C(=O)NCCCCCCCN(C)CCCCCCCNC(=O)c2nn(-c3ccc(Cl)cc3Cl)c(-c3ccc(Cl)cc3)c2C)nn(-c2ccc(Cl)cc2Cl)c1-c1ccc(Cl)cc1` is 72-fold lower in Kb: 309 nM for the first, 4.27 nM for the second.

First: Cc1c(C(=O)NCCCCCCCNCCCCCCCNC(=O)c2nn(-c3ccc(Cl)cc3Cl)c(-c3ccc(Cl)cc3)c2C)nn(-c2ccc(Cl)cc2Cl)c1-c1ccc(Cl)cc1
Second: Cc1c(C(=O)NCCCNCCCNC(=O)c2nn(-c3ccc(Cl)cc3Cl)c(-c3ccc(Cl)cc3)c2C)nn(-c2ccc(Cl)cc2Cl)c1-c1ccc(Cl)cc1
The Kb of the first is 4.7-fold lower: 8.32 nM for the first, 38.9 nM for the second.
